Results published in ChEMBL document CHEMBL1143643, “Synthesis and evaluation of antiplatelet activity of trihydroxychalcone derivatives” (Bioorg Med Chem Lett, 2005).

Assays:
Oryctolagus cuniculus [1] = species: Oryctolagus cuniculus; assay: In vitro inhibitory effects on arachidonic acid induced rabbit platelet aggregation upon incubation at 37 degree C for 4 minutes; format: functional
Oryctolagus cuniculus [2] = species: Oryctolagus cuniculus; assay: In vitro inhibitory effects on collagen induced rabbit platelet aggregation upon incubation at 37 degree C for 4 minutes; format: functional

IC50 (Oryctolagus cuniculus [1]) | IC50 (Oryctolagus cuniculus [2]) | SMILES
> 100 µM | > 100 µM | CN(C)c1ccc(/C=C/C(=O)c2c(O)cc(O)cc2O)cc1
28.5 µM | 37.4 µM | COc1cc(/C=C/C(=O)c2c(O)cc(O)cc2O)ccc1OCc1ccccc1
